We go through 20 molecules from patent US6949533B2, “6,7-Oxygenated steroids and uses related thereto” (Inflazyme Pharmaceuticals Ltd., priority 1996, dated 2005).

Read-outs that look alike come from different tables or passages of the source.

Experiment [1] has as its system passively sensitized rat mast cells (RBL-2H3). Description: antigen-induced release of hexosaminidase from RBL-2H3 cells. In kind it is cell-based. The note with it: for inhibition at 25 µM: Rattus norvegicus. The procedure:
(§1) The anti-allergic effects of various polyhydroxylated steroids of the present invention were evaluated by measuring their effect on antigen-induced secretion of hexosaminidase from a passively sensitized rat mast cell line (RBL-2H3) and a murine mast cell line (MC/9). The ability of agents to inhibit the release of mast cell granule contents, e.g., histamine and hexosaminidase, is indicative of anti-allergy and/or anti-asthma activity.
(§2) Hexosaminidase is released from the mast cell granule along with histamine and other mediators during antigen challenge. RBL-2H3 and MC/9 cells were grown in culture and passively sensitized to dinitrophenol (DNP) using anti-human-DNP (IgE). Cells were incubated with each compound (25 μM) for 1 hour at 37° C. and then stimulated with 0.1 mg/ml DNP-HSA (antigen) for 15 min. Aliquots of the supernatant were removed and used to measure the amount of hexosaminidase released during challenge with the antigen. The amount of hexosaminidase present in the supernatant was determined calorimetrically by monitoring the enzymatic metabolism of p-nitrophenyl-N-acetyl-β-D-glucosaminide (p-NAG) over a period of 1 hour at 410 nm. The effect of each compound was determined as a percentage of the antigen-induced response (minus background release) obtained in the presence of DMSO alone, as set forth in Tables 2 and 3. These values were used to determine the degrees of inhibition of antigen-induced hexosaminidase release from the cells.

The next experiment deals with guinea pig ileum. Description: antigen-induced contraction of ileum from sensitized guinea pigs. To be noted: Cavia porcellus, read-out: Percentage Inhibition, 30 μM compound, n = 3-4. The procedure:
The ability of compounds to inhibit allergen-induced contraction of ileum from sensitized animals is indicative of antiallergic activity. Sensitized guinea pig ileum is particularly useful in measuring the immediate allergic response.
The guinea pig ileum has been used to evaluate the ability of compounds to inhibit allergan-induced histamine and mediator release causing smooth muscle contraction. Guinea pigs were sensitized by an intraperitoneal injection of 100 mg ovalbumin and an intramuscular injection of 50 mg ovalbumin on day 0, followed by a second intramuscular injection of 50 mg ovalbumin on day 1. […] Segments of ileum were prepared and suspended, with muscle contractions being measured in the longitudinal plane, in Tyrode's buffer at 37° C. and aerated with 5% CO2 in O2. Tissues were suspended under a resting tension of 2 grams and isometric contractions were measured using force-displacement transducers coupled to a polygraph. Tissues were stimulated with 3 μM histamine 3 times to ensure reproducible contractions were obtained. Tissues were then incubated with each compound (30 μM) or 0.15% dimethylsulphoxide (DMSO) as a control, for 20 min, after which time the tissues were challenged with 100 μg/ml ovalbumin. The magnitude of the contraction induced by OA in the presence of each compound was expressed as a percentage of the contraction obtained to 3 μM histamine. The protective effects of the various compounds on OA-induced contraction of guinea pig ileum from sensitized animals are summarized in Table 4.

Another experiment concerns mouse mast cells (MC/9). Description: antigen-induced release of hexosaminidase from MC/9 cells. To be noted: for inhibition at 25 µM: Mus musculus, MC9, 25 μM compound, read-out: Percentage Inhibition (mean) MC/9 cells. In kind it is cell-based. The procedure: as §1, §2
For a further experiment, the system named is sensitized guinea pigs. Description: allergen-induced changes in lung resistance and compliance in vivo. To be noted: 5 mg/kg/day for 4 days p.o. Also noted: species or system guinea pig. The procedure: Female Cam Hartley guinea pigs (350-400 g) are sensitized to ovalbumin by exposure of the guinea pigs to a nebulized solution of 1% ovalbumin in saline for 15 minutes. After 10-12 days, the animals are found to be acutely sensitized to the allergen (ovalbumin). Animals are treated by oral gavage, under light halothane anesthesia, with 300 μl polyethyleneglycol-200 (PEG) or 5 mg/Kg of test compound in 300 μl of PEG. Animals are treated once daily for 4 days with the final dose administered 2 hours prior to allergen challenge. Alternatively, compounds were delivered by inhalation, using a Hudson nebulizer driven by 6 psi oxygen, providing a single dose of 50 μg/Kg 20 min prior to challenge.
An animal is anaesthetized using ketamine ([…]; i.p.) and xylazine (10 mg/Kg; i.p.) and 1% halothane during the surgical procedure. A tracheostomy is performed and a water-filled esophageal cannula is inserted prior to positioning the animal in a body plethysmograph. The tracheal cannula is attached to a fixed tracheal cannula in the plethysmograph. Cardiac function is monitored using electrocardiography. The animal is paralyzed using pancuronium bromide (0.8 mg/Kg; i.m.) and ventilated with 3 ml tidal breaths using a Harvard small animal ventilator, at a frequency of 60 breaths per minute. Pulmonary resistance and dynamic lung compliance data are obtained from volume, flow and transpulmonary pressure signals using multipoint analysis.
Pulmonary function is continually monitored throughout the experiment and measurements of lung resistance and lung compliance are made at various time-points (e.g., 0, 1, 2, 3, 4, 5, 10, 20 and 30 min) following antigen challenge. Data is collected on a computer-linked physiological measurement system using DIREC Physiological recording software and analyzed using ANADAT software designed for lung mechanics measurements. This software was obtained from RHT-InfoDat Inc., Montreal, Quebec, Canada.
Once baseline resistance and compliance measurements are obtained, the animal is challenged with 6 breaths of saline. After 10 minutes, during which time no alterations in lung function should occur, the animal is challenged with 6 breaths of 2 or 3% ovalbumin in saline (as the antigen stimulus). Saline and antigen are delivered in each breath using a Hudson nebulizer.

[2] abbreviates: RBL-2H3, 25 μM compound, antigen-induced hexosaminidase release, read-out: Percentage Inhibition (mean) RBL-2H3 Cells.
Where [3] appears, read: RBL-2H3, read-out: Percentage Inhibition (mean) RBL-2H3 Cells.

Turning to `CC(=O)O[C@@H]1C2C(CC[C@@]3(C)C2CCC32OCCO2)[C@@]2(C)CC[C@H](O)CC2[C@H]1OC(C)=O` (some centres unmarked) [Compound 322], the inhibition at 25 µM in experiment [1] (setting [2]) turned out to be 25.6%.

On to `CC(C)(C)[Si](C)(C)OC1CC[C@]2(C)C3CC[C@@]4(C)C(CCC45OCCO5)C3[C@@H](O)[C@H](O)C2C1` (some centres unmarked) [Compound 221], for which the inhibition at 30 µM in the experiment on guinea pig ileum came to 60.7%.

For the molecule `C/C=C1/CCC2C3C(CC[C@]12C)[C@@]1(C)CC[C@@H](Cl)CC1[C@H]1OC(C)(C)O[C@H]31` (some centres unmarked) [Compound 336], the inhibition at 30 µM in the experiment on guinea pig ileum came to 79.3%.

As for `C[C@@]12CCCC1C1C(CC2)[C@@]2(C)CC[C@H](O)CC2[C@@H](O)[C@@H]1O` (some centres unmarked) [Compound 351], the inhibition at 30 µM with guinea pig ileum stood at 43.6%. In experiment [1] (setting [2]), the inhibition at 25 µM worked out at 33.6%.

For `C/C=C1/CCC2C3CCC4C[C@@H](O)CC[C@]4(C)C3CC[C@]12C` (some centres unmarked) [Compound 251], the inhibition at 30 µM in the experiment on guinea pig ileum was -10.5%.

In the case of `C[C@]12CC[C@@H](O)[C@H](O)[C@@H]1[C@@H](O)[C@H](O)[C@@H]1[C@@H]2CC[C@]2(C)[C@@H](O)CC[C@@H]12` [Compound 241, 3α,4β,6α,7β,17β-pentahydroxy-5α-androstane], the inhibition at 25 µM in experiment [1] (setting [3]) was 22%.

In the case of `C[C@]12CC[C@H](O)CC1[C@@H](O)[C@H](O)C1C2CC[C@@]2(C)C1CCC21OCCO1` (some centres unmarked) [Compound 328], in experiment [1] (setting [2]), the inhibition at 25 µM came out at 34.3%.

Consider `C/C=C1/CCC2C3C(CC[C@]12C)[C@@]1(C)CCC(=O)CC1[C@@H](O)[C@@H]3O` (some centres unmarked) [Compound 335], for which, in the experiment with guinea pig ileum, the inhibition at 30 µM turned out to be 30.7%. Also, the figures for the inhibition at 25 µM (with mouse mast cells (MC/9); in experiment [1] (setting [2])) were 69% and 56%, respectively.

On to `C=C1CCC2C3C(CC[C@]12C)[C@@]1(C)CC[C@H](O)CC1[C@@H](O)[C@@H]3O` (some centres unmarked) [Compound 342], for which, in the experiment on guinea pig ileum, the inhibition at 30 µM came to 28.3%. Also, the inhibition at 25 µM with mouse mast cells (MC/9) was 39%; in experiment [1] (setting [2]), 57%. The “Lung Compliance” value in the experiment on sensitized guinea pigs (1 min after challenge) amounted to 0.154 ± 0.055 ml/cm H2O; with sensitized guinea pigs (2 min after challenge), 0.073 ± 0.038 ml/cm H2O; in the experiment with sensitized guinea pigs (3 min after challenge), 0.044 ± 0.022 ml/cm H2O; in the experiment with sensitized guinea pigs (4 min after challenge), 0.044 ± 0.022 ml/cm H2O; in the experiment on sensitized guinea pigs (5 min after challenge) it was 0.038 ± 0.015 ml/cm H2O; in the experiment on sensitized guinea pigs (10 min after challenge), 0.048 ± 0.005 ml/cm H2O. For the same molecule, the “Lung Compliance” value in the experiment on sensitized guinea pigs (20 min after challenge) turned out to be 0.084 ± 0.005 ml/cm H2O; in the experiment on sensitized guinea pigs (30 min after challenge), 0.109 ± 0.006 ml/cm H2O; with sensitized guinea pigs (Baseline), 0.444 ± 0.037 ml/cm H2O; in the experiment with sensitized guinea pigs (OA/10 s), 0.464 ± 0.031 ml/cm H2O. Moreover, the “Lung Resistance” value in the experiment with sensitized guinea pigs (1 min after challenge) is on record as 0.453 ± 0.120 cm H2O/ml/sec; in the experiment with sensitized guinea pigs (2 min after challenge), 1.786 ± 0.82 cm H2O/ml/sec; in the experiment on sensitized guinea pigs (3 min after challenge), 1.930 ± 0.55 cm H2O/ml/sec; in the experiment with sensitized guinea pigs (4 min after challenge) it was 1.621 ± 0.36 cm H2O/ml/sec; in the experiment on sensitized guinea pigs (5 min after challenge), 1.4816 ± 0.32 cm H2O/ml/sec; in the experiment with sensitized guinea pigs (10 min after challenge), 1.002 ± 0.14 cm H2O/ml/sec. For the same molecule, the “Lung Resistance” value in the experiment with sensitized guinea pigs (20 min after challenge) is listed as 0.524 ± 0.08 cm H2O/ml/sec; with sensitized guinea pigs (30 min after challenge), 0.354 ± 0.04 cm H2O/ml/sec; in the experiment on sensitized guinea pigs (Baseline), 0.212 ± 0.020 cm H2O/ml/sec; in the experiment with sensitized guinea pigs (OA/10 s) it was 0.223 ± 0.020 cm H2O/ml/sec.

Turning to `CC[C@H]1CCC2C3C(CC[C@@]21C)[C@@]1(C)C[C@@H](O)C(O)CC1[C@@H](O)[C@@H]3O` (some centres unmarked) [Compound 360], in the experiment with guinea pig ileum, the inhibition at 30 µM was 50.5%. Moreover, the inhibition at 25 µM in experiment [1] (setting [2]) came out at 76%.

Regarding `CC1(C)O[C@@H]2C3C(CC[C@]4(C)C(=O)CCC34)[C@@]3(C)CC[C@H](O)CC3[C@H]2O1` (some centres unmarked) [Compound 331], the inhibition at 30 µM in the experiment with guinea pig ileum came to 14.5%. Further, in the experiment with mouse mast cells (MC/9), the inhibition at 25 µM amounted to 5%.

`C[C@H]1CCC2C3C(CC[C@@]21C)[C@@]1(C)CC[C@H](O)CC1[C@@H](O)[C@@H]3O` (some centres unmarked) [Compound 343]: in the experiment on guinea pig ileum, the inhibition at 30 µM was found to be 48.9%. The inhibition at 25 µM with mouse mast cells (MC/9) was 40%; in experiment [1] (setting [2]), 52%.

In the case of `CC(C)[C@H]1CC(=O)OC([C@@H](C)C2CC(=O)C3C4CCC5C[C@@H](O)CC[C@]5(C)C4CC[C@@]32C)C1` (some centres unmarked) [Compound 266], in the experiment with guinea pig ileum, the inhibition at 30 µM was 17.4%. The inhibition at 25 µM in experiment [1] (setting [2]) is -12.5%.

Consider `CC[C@H]1CCC2C3C(CC[C@@]21C)[C@@]1(C)CC[C@@H](O)CC1[C@H]1OC(C)(C)O[C@H]31` (some centres unmarked) [Compound 361], for which the inhibition at 30 µM in the experiment with guinea pig ileum was determined as 55%. Besides, the inhibition at 25 µM with mouse mast cells (MC/9) came out at 13%.

As for `C/C=C1/CCC2C3C(CC[C@]12C)[C@@]1(C)CC[C@@H](Cl)CC1[C@@H](O)[C@@H]3O` (some centres unmarked) [Compound 337], the inhibition at 30 µM in the experiment with guinea pig ileum was determined as 50.7%. For the same molecule, the figures for the inhibition at 25 µM (in the experiment with mouse mast cells (MC/9); in experiment [1] (setting [2])) were 56% and 44%, respectively.

As for `CC(C)C1CC(O)OC(C(C)C2CCC3C4C(CC[C@]23C)[C@@]2(C)CC[C@@H](O)CC2[C@@H](O)[C@@H]4O)C1` (some centres unmarked) [Compound 306, 22,29-epoxy-3,6,7,29-tetrahydroxystigmastanol], in experiment [1] (setting [2]), the inhibition at 25 µM is 40.5%.

As for `C/C=C1/CCC2C3C(CC[C@]12C)[C@@]1(C)CCCCC1[C@@H](O)[C@@H]3O` (some centres unmarked) [Compound 346], the inhibition at 30 µM in the experiment on guinea pig ileum was 62.5%. For the same molecule, the inhibition at 25 µM with mouse mast cells (MC/9) stood at 61%; in experiment [1] (setting [2]), 16%.

In the case of `CC(C)CCCC(C)C1CCC2C3C(O)C(O)C4CC(O)CCC4(C)C3CCC12C` (centres unmarked) [Compound 354], the “Percentage Inhibition (mean) MC/9 cells” value with mouse mast cells (MC/9) (25 μM compound) was 76%. Moreover, the “Percentage Inhibition (mean) RBL-2H3 Cells” value in experiment [1] (25 μM compound, antigen-induced hexosaminidase release) is recorded as 30%.

For `C[C@]12CC[C@H]3O[C@H]3[C@@H]1[C@@H](O)[C@H](O)[C@@H]1[C@@H]2CC[C@]2(C)[C@@H](O)CC[C@@H]12` [Compound 239, 3α,4α-epoxy-6α,7β,17β-trihydroxy-5α-androstane], the inhibition at 25 µM in experiment [1] (setting [3]) was determined as 9.6%.

As to `C/C=C1/CCC2C3C(CC[C@]12C)[C@@]1(C)CC[C@@H](O)CC1[C@H]1OC(C)(C)O[C@H]31` (some centres unmarked) [Compound 338], the inhibition at 30 µM with guinea pig ileum is 64%.
